Measurements reported in patent US10975051B2, “Phenylsulfonamido-benzofuran derivatives and uses thereof in the treatment of proliferative diseases” (Memorial Sloan-Kettering Cancer Center, priority 2015, dated 2021).

What was measured:
BCL-2 = BCL-2 (Homo sapiens, UniProt P10415); conditions: Oltersdorf et al., Nature, 2005; cited from earlier work
BCL-W = target: T1, BCL-W (Homo sapiens, UniProt Q92843); conditions: Oltersdorf et al., Nature, 2005; cited from earlier work
T1 sequence (Q92843 1-193): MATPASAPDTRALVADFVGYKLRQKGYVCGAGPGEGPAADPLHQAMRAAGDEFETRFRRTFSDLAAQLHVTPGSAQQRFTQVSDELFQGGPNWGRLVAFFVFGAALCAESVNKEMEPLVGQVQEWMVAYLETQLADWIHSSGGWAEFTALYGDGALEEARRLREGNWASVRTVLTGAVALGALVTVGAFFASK

BCL-XL = BCL-XL (Homo sapiens, UniProt Q07817); conditions: Oltersdorf et al., Nature, 2005; cited from earlier work
MCL-1 = MCL-1 (Homo sapiens, UniProt Q07820); conditions: background statement; cited from earlier work
[1] = test system: MCL-1-addicted cancer cell-line, H23; assay: apoptosis induction in MCL-1-addicted cancer cell line H23; format: cell-based; conditions: H23 cells; for induction of apoptosis: FIG. 1B
[2] = test system: MCL-1-addicted cancer cell-line H82; assay: apoptosis induction in MCL-1-addicted cancer cell line H82; format: cell-based; conditions: H82 cells, FIG. 1B
[3] = test system: DMS53, SW1417, and H82 cell lines; assay: apoptotic induction in DMS53, SW1417 and H82 cell lines (selectively addicted to BCL-2, BCL-XL and MCL-1); format: cell-based; conditions: H82 versus DMS53 and SW1417, FIG. 2B

Sequence of BCL-2 (P10415 whole entry, species assumed): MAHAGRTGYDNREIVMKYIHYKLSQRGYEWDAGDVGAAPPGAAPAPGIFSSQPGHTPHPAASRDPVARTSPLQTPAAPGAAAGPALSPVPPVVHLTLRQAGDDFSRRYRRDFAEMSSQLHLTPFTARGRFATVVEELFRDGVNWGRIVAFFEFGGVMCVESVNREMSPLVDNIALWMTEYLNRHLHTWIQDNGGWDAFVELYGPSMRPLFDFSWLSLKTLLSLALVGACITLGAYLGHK
Sequence of MCL-1 (Q07820 whole entry, species assumed): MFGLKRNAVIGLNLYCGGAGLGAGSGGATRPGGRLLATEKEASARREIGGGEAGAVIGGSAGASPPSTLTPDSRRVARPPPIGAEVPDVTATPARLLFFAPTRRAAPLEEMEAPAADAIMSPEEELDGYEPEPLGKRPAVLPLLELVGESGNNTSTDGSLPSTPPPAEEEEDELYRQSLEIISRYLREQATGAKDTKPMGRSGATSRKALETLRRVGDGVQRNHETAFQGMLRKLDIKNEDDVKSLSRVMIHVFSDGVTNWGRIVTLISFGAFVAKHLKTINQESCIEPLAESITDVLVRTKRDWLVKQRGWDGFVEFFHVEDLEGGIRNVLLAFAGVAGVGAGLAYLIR
Sequence of BCL-XL (Q07817 whole entry, species assumed): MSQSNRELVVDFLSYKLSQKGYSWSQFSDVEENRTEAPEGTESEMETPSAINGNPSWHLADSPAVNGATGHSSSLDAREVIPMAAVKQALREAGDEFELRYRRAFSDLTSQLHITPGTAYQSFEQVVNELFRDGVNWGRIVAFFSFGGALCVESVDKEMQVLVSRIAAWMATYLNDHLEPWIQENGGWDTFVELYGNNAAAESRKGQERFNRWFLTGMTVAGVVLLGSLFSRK

SMILES	binding affinity to BCL-2 (BCL-2)	binding affinity to BCL-W (BCL-W)	binding affinity to BCL-XL (BCL-XL)	inhibition of MCL-1 (MCL-1)	induction of apoptosis ([1]; 1 µM of compound)	induction of apoptosis ([1]; 1 μM of compound)	EC50 ([1]; Homo sapiens, NCI-H23, FIG. 1A, read-out: EC50 of inducing apoptosis) [nM]	induction of apoptosis ([2]; 1 µM of compound)	induction of apoptosis ([2]; 1 μM of compound)	selectivity of apoptosis induction in MCL-1 addicted cancer cell line over BCL-2 or BCL-XL addicted cancer cell lines [3]
CC1(C)CCC(c2ccc(Cl)cc2)=C(CN2CCN(c3ccc(C(=O)NS(=O)(=O)c4ccc(N[C@H](CCN5CCOCC5)CSc5ccccc5)c(S(=O)(=O)C(F)(F)F)c4)cc3)CC2)C1 [ABT-263]	high affinity	high affinity	high affinity	do not inhibit	–	–	–	–	–	–
CN(C)CC[C@H](CSc1ccccc1)Nc1ccc(S(=O)(=O)NC(=O)c2ccc(N3CCN(Cc4ccccc4-c4ccc(Cl)cc4)CC3)cc2)cc1[N+](=O)[O-] [ABT-737, (R)-4-(4-((4′-chloro-[1,1′-biphenyl]-2-yl)methyl)piperazin-1-yl)-N-((4-((−4-(dimethylamino)-1-(phenylthio)butan-2-yl)amino)-3-nitrophenyl)sulfonyl)benzamide]	high affinity	high affinity	high affinity	do not inhibit	–	–	–	–	–	–
CCOC(=O)c1c(C)oc2cc(Br)c(NS(=O)(=O)c3ccc(OC)cc3)cc12 [Compound 1]	–	–	–	–	robust apoptosis	robust apoptosis	600	robust apoptosis	robust apoptosis	selectively induce apoptosis
